pIC50: −log10 of the molar value.
Assays:
[1] = Cytotoxicity against Pgp deficient human LCC6 cells after 72 hrs by sulforhodamine B test; format: functional, cell-based; conditions: C6, 72 h
[2] = Cytotoxicity against multidrug resistant Pgp expressing human LCC6 cells after 72 hrs by sulforhodamine B test; format: functional, cell-based; conditions: LCC-6, 72 h
MCF7 [3] = test: Cytotoxicity against Pgp deficient human MCF7 cells after 72 hrs by sulforhodamine B test; format: functional, cell-based; conditions: MCF7, 72 h
[4] = Cytotoxicity against multidrug resistant Pgp expressing human NCI/ADR cells after 72 hrs by sulforhodamine B test; format: functional, cell-based; conditions: NCI/ADR-RES
MCF7 [5] = test: Resistance index, Ratio of IC50 for multidrug resistant Pgp expressing human NCI/ADR cells to IC50 for Pgp deficient human MCF7 cells; format: functional; design: reference not given here
C6 = test: Resistance index, Ratio of IC50 for multidrug resistant Pgp expressing human LCC6 cells to IC50 for Pgp deficient human LCC6 cells; format: functional; design: reference not given here

| Structure (SMILES) | pIC50 [1] | pIC50 [2] | pIC50 (MCF7 [3]) | pIC50 [4] | Ratio IC50 (MCF7 [5]) | Ratio IC50 (C6) |
| --- | --- | --- | --- | --- | --- | --- |
| CC(=O)O[C@@]12CO[C@@H]1C[C@H](O)[C@@]1(C)C(=O)[C@H](O)C3=C(C)[C@@H](OC(=O)[C@H](O)[C@@H](NC(=O)OC(C)(C)C)c4ccccc4)C[C@@](O)([C@@H](OC(=O)c4ccccc4)[C@H]21)C3(C)C.O.O.O [DOCETAXEL] | 9.00 | 6.92 | – | – | – | – |
| C=Cc1cccc(C(=O)O[C@H]2[C@@H]3[C@]4(OC(C)=O)CO[C@@H]4C[C@H](O)[C@@]3(C)C(=O)[C@H](OC(=O)CC)C3=C(C)[C@@H](OC(=O)[C@H](O)[C@H](C=C(C)C)NC(=O)OC(C)(C)C)C[C@]2(O)C3(C)C)c1 | 8.54 | – | – | – | – | – |
| CC(=O)O[C@H]1C(=O)[C@@]2(C)[C@H]([C@H](OC(=O)c3cccc(C)c3)[C@]3(O)C[C@H](OC(=O)[C@H](O)[C@H](C=C(C)C)NC(=O)OC(C)(C)C)C(C)=C1C3(C)C)[C@]1(OC(C)=O)CO[C@@H]1C[C@@H]2O | 8.82 | – | 9.10 | 8.30 | – | – |
| CCC(=O)O[C@H]1C(=O)[C@@]2(C)[C@H]([C@H](OC(=O)c3ccccc3)[C@]3(O)C[C@H](OC(=O)[C@H](O)[C@H](CC(C)C)NC(=O)OC(C)(C)C)C(C)=C1C3(C)C)[C@]1(OC(C)=O)CO[C@@H]1C[C@@H]2O | – | – | – | 8.29 | 15 | – |
| CC(=O)O[C@@]12CO[C@@H]1C[C@H](O)[C@@]1(C)C(=O)[C@H](OC(=O)c3cccc4ccccc34)C3=C(C)[C@@H](OC(=O)[C@H](O)[C@H](C=C(C)C)NC(=O)OC(C)(C)C)C[C@@](O)([C@@H](OC(=O)c4ccccc4)[C@H]21)C3(C)C | 8.28 | 7.82 | – | – | – | 2.9 |
| CCC(=O)O[C@H]1C(=O)[C@@]2(C)[C@H]([C@H](OC(=O)c3cccc(Cl)c3)[C@]3(O)C[C@H](OC(=O)[C@H](O)[C@H](C=C(C)C)NC(=O)OC(C)(C)C)C(C)=C1C3(C)C)[C@]1(OC(C)=O)CO[C@@H]1C[C@@H]2O | 9.10 | – | – | – | – | – |
| CCC(=O)O[C@H]1C(=O)[C@@]2(C)[C@H]([C@H](OC(=O)c3cccc(F)c3)[C@]3(O)C[C@H](OC(=O)[C@H](O)[C@H](C=C(C)C)NC(=O)OC(C)(C)C)C(C)=C1C3(C)C)[C@]1(OC(C)=O)CO[C@@H]1C[C@@H]2O | 9.30 | – | – | – | – | – |
| COc1ccc(C(=O)O[C@H]2C(=O)[C@@]3(C)[C@H]([C@H](OC(=O)c4ccccc4)[C@]4(O)C[C@H](OC(=O)[C@H](O)[C@H](C=C(C)C)NC(=O)OC(C)(C)C)C(C)=C2C4(C)C)[C@]2(OC(C)=O)CO[C@@H]2C[C@@H]3O)cc1 | 8.42 | 8.33 | – | – | – | 1.2 |
| CCC(=O)O[C@H]1C(=O)[C@@]2(C)[C@H]([C@H](OC(=O)c3cccc(N=[N+]=[N-])c3)[C@]3(O)C[C@H](OC(=O)[C@H](O)[C@H](C=C(C)C)NC(=O)OC(C)(C)C)C(C)=C1C3(C)C)[C@]1(OC(C)=O)CO[C@@H]1C[C@@H]2O | 9.05 | – | 9.05 | 8.96 | – | – |
| C=CC[C@H](NC(=O)OC(C)(C)C)[C@@H](O)C(=O)O[C@H]1C[C@@]2(O)[C@@H](OC(=O)c3cccc(OC)c3)[C@@H]3[C@]4(OC(C)=O)CO[C@@H]4C[C@H](O)[C@@]3(C)C(=O)[C@H](OC(=O)CC)C(=C1C)C2(C)C | 8.92 | – | 9.10 | 8.06 | – | – |
| CCC(=O)O[C@H]1C(=O)[C@@]2(C)[C@H]([C@H](OC(=O)c3cccc(N=[N+]=[N-])c3)[C@]3(O)C[C@H](OC(=O)[C@H](O)[C@H](CC(C)C)NC(=O)OC(C)(C)C)C(C)=C1C3(C)C)[C@]1(OC(C)=O)CO[C@@H]1C[C@@H]2O | 8.96 | – | 9.00 | 8.68 | – | – |
| CCC(=O)O[C@H]1C(=O)[C@@]2(C)[C@H]([C@H](OC(=O)c3cccc(F)c3)[C@]3(O)C[C@H](OC(=O)[C@H](O)[C@H](CC(C)C)NC(=O)OC(C)(C)C)C(C)=C1C3(C)C)[C@]1(OC(C)=O)CO[C@@H]1C[C@@H]2O | 9.40 | – | – | – | – | – |
| COc1ccccc1C(=O)O[C@H]1C(=O)[C@@]2(C)[C@H]([C@H](OC(=O)c3ccccc3)[C@]3(O)C[C@H](OC(=O)[C@H](O)[C@H](C=C(C)C)NC(=O)OC(C)(C)C)C(C)=C1C3(C)C)[C@]1(OC(C)=O)CO[C@@H]1C[C@@H]2O | 8.68 | 8.24 | – | – | – | 2.7 |
| CC(=O)O[C@@]12CO[C@@H]1C[C@H](O)[C@@]1(C)C(=O)[C@H](OC(=O)c3ccccc3)C3=C(C)[C@@H](OC(=O)[C@H](O)[C@H](C=C(C)C)NC(=O)OC(C)(C)C)C[C@@](O)([C@@H](OC(=O)c4ccccc4)[C@H]21)C3(C)C | 8.74 | 8.32 | – | – | – | 2.7 |
| COc1cccc(C(=O)O[C@H]2[C@@H]3[C@]4(OC(C)=O)CO[C@@H]4C[C@H](O)[C@@]3(C)C(=O)[C@H](OC(=O)C3CC3)C3=C(C)[C@@H](OC(=O)[C@H](O)[C@H](C=C(C)C)NC(=O)OC(C)(C)C)C[C@]2(O)C3(C)C)c1 | 9.00 | 8.54 | – | – | – | 2.9 |
| CCC(=O)O[C@H]1C(=O)[C@@]2(C)[C@H]([C@H](OC(=O)c3ccccc3)[C@]3(O)C[C@H](OC(=O)[C@H](O)[C@H](C=C(C)C)NC(=O)OC(C)(C)C)C(C)=C1C3(C)C)[C@]1(OC(C)=O)CO[C@@H]1C[C@@H]2O | – | – | – | 8.40 | 22 | – |
| CCC(=O)O[C@H]1C(=O)[C@@]2(C)[C@H]([C@H](OC(=O)c3cccc(OC)c3)[C@]3(O)C[C@H](OC(=O)[C@H](O)[C@@H](NC(=O)OC(C)(C)C)[C@H]4CC4(C)C)C(C)=C1C3(C)C)[C@]1(OC(C)=O)CO[C@@H]1C[C@@H]2O | 9.32 | – | 9.22 | 8.82 | – | – |
| COc1cccc(CCC(=O)O[C@H]2C(=O)[C@@]3(C)[C@H]([C@H](OC(=O)c4ccccc4)[C@]4(O)C[C@H](OC(=O)[C@H](O)[C@H](C=C(C)C)NC(=O)OC(C)(C)C)C(C)=C2C4(C)C)[C@]2(OC(C)=O)CO[C@@H]2C[C@@H]3O)c1 | 8.43 | 8.17 | – | – | – | 1.8 |
| COc1cccc(C(=O)O[C@H]2C(=O)[C@@]3(C)[C@H]([C@H](OC(=O)c4ccccc4)[C@]4(O)C[C@H](OC(=O)[C@H](O)[C@H](C=C(C)C)NC(=O)OC(C)(C)C)C(C)=C2C4(C)C)[C@]2(OC(C)=O)CO[C@@H]2C[C@@H]3O)c1 | 8.55 | 8.29 | – | – | – | 1.8 |
| C/C=C/[C@H](NC(=O)OC(C)(C)C)[C@@H](O)C(=O)O[C@H]1C[C@@]2(O)[C@@H](OC(=O)c3cccc(OC)c3)[C@@H]3[C@]4(OC(C)=O)CO[C@@H]4C[C@H](O)[C@@]3(C)C(=O)[C@H](OC(=O)CC)C(=C1C)C2(C)C | 8.92 | – | – | – | – | – |
| COc1cccc(C(=O)O[C@H]2[C@@H]3[C@]4(OC(C)=O)CO[C@@H]4C[C@H](O)[C@@]3(C)C(=O)[C@H](OC(C)=O)C3=C(C)[C@@H](OC(=O)[C@H](O)[C@H](C=C(C)C)NC(=O)OC(C)(C)C)C[C@]2(O)C3(C)C)c1 | 9.22 | – | 9.10 | 8.64 | – | – |
| COc1ccccc1CC(=O)O[C@H]1C(=O)[C@@]2(C)[C@H]([C@H](OC(=O)c3ccccc3)[C@]3(O)C[C@H](OC(=O)[C@H](O)[C@H](C=C(C)C)NC(=O)OC(C)(C)C)C(C)=C1C3(C)C)[C@]1(OC(C)=O)CO[C@@H]1C[C@@H]2O | 8.64 | 7.86 | – | – | – | 6 |
| CC(=O)O[C@@]12CO[C@@H]1C[C@H](O)[C@@]1(C)C(=O)[C@H](OC(=O)CCc3ccccc3)C3=C(C)[C@@H](OC(=O)[C@H](O)[C@H](C=C(C)C)NC(=O)OC(C)(C)C)C[C@@](O)([C@@H](OC(=O)c4ccccc4)[C@H]21)C3(C)C | 8.29 | 7.51 | – | – | – | 6.1 |
| CC(=O)O[C@@]12CO[C@@H]1C[C@H](O)[C@@]1(C)C(=O)[C@H](OC(=O)OCc3ccccc3)C3=C(C)[C@@H](OC(=O)[C@H](O)[C@H](C=C(C)C)NC(=O)OC(C)(C)C)C[C@@](O)([C@@H](OC(=O)c4ccccc4)[C@H]21)C3(C)C | 8.74 | 7.78 | – | – | – | 9.3 |
| COc1ccccc1CCC(=O)O[C@H]1C(=O)[C@@]2(C)[C@H]([C@H](OC(=O)c3ccccc3)[C@]3(O)C[C@H](OC(=O)[C@H](O)[C@H](C=C(C)C)NC(=O)OC(C)(C)C)C(C)=C1C3(C)C)[C@]1(OC(C)=O)CO[C@@H]1C[C@@H]2O | 8.82 | 8.30 | – | – | – | 3.3 |
| C=CCC[C@H](NC(=O)OC(C)(C)C)[C@@H](O)C(=O)O[C@H]1C[C@@]2(O)[C@@H](OC(=O)c3cccc(OC)c3)[C@@H]3[C@]4(OC(C)=O)CO[C@@H]4C[C@H](O)[C@@]3(C)C(=O)[C@H](OC(=O)CC)C(=C1C)C2(C)C | 9.05 | – | 8.70 | 8.11 | – | – |
| COc1ccc(CCC(=O)O[C@H]2C(=O)[C@@]3(C)[C@H]([C@H](OC(=O)c4ccccc4)[C@]4(O)C[C@H](OC(=O)[C@H](O)[C@H](C=C(C)C)NC(=O)OC(C)(C)C)C(C)=C2C4(C)C)[C@]2(OC(C)=O)CO[C@@H]2C[C@@H]3O)cc1 | 8.77 | 8.31 | – | – | – | 2.9 |
| COc1cccc(CC(=O)O[C@H]2C(=O)[C@@]3(C)[C@H]([C@H](OC(=O)c4ccccc4)[C@]4(O)C[C@H](OC(=O)[C@H](O)[C@H](C=C(C)C)NC(=O)OC(C)(C)C)C(C)=C2C4(C)C)[C@]2(OC(C)=O)CO[C@@H]2C[C@@H]3O)c1 | 8.68 | 7.69 | – | – | – | 9.7 |
| CC(=O)O[C@@]12CO[C@@H]1C[C@H](O)[C@@]1(C)C(=O)[C@H](OC(=O)c3ccc4ccccc4c3)C3=C(C)[C@@H](OC(=O)[C@H](O)[C@H](C=C(C)C)NC(=O)OC(C)(C)C)C[C@@](O)([C@@H](OC(=O)c4ccccc4)[C@H]21)C3(C)C | 8.20 | 7.82 | – | – | – | 2.4 |

Reference: ChEMBL document CHEMBL1150351, “Design, synthesis, and biological evaluation of new-generation taxoids” (J Med Chem, 2008)
